Test results published in US20100234377A1 (priority 2007, published 2010).

Biological target: T1, human Prostaglandin D Synthase (GST2) (Homo sapiens, UniProt O60760)
T1 construct: the open reading frame of human Prostaglandin D Synthase was amplified from cDNA; made in house; host or cells: E. coli TOP10F'
Assay: Homogeneous biochemical assay of human Prostaglandin D Synthase (GST2) based on its glutathion-S-transferase activity (GSH conjugation to monochlorobimane, fluorescence)
Details: Table 2; comparative examples; read-out: GST2 inhibition IC50
Excerpt: Homogeneous, Biochemical Assay Monitoring the Activity of Human Prostaglandin D Synthase Based on the Glutathion-S-Transferase Activity of the Enzyme
Prostaglandin D2 synthesis by Prostaglandin D synthase (GST2) requires transfer of Glutathion (GSH) to the substrate, Prostaglandin H2. […] Since the Prostaglandin D2 synthesis is absolutely dependent on the GST activity of the enzyme, assays monitoring the GST activity should allow to identify specific inhibitors of Prostaglandin D2 synthetic activity. The assay principle used is based on enzymatic conjugation of GSH to Monochlorobimane (MCB), that becomes fluorescent upon this chemical modification. Therefore, the enzymatic reaction can be monitored by total fluorescence measurement.
In brief, the open reading frame of human Prostaglandin D Synthase was amplified from cDNA using the primer pair:
This construct allows prokaryotic expression of Prostaglandin D Synthase as fusion protein with a N-terminal hexa-histidine tag, referred to as NHis-Prostaglandin D Synthase.
Expression of NHis-Prostaglandin D Synthase was in E. coli TOP10F′ (Invitrogen, Germany, cat. no. C3030-03). […] When the culture had reached a density corresponding to an A600 of 0.6, an equal volume of room temperature LB/ampicillin was added. […] Cells harvested by centrifugation were resuspended in 50 mM tris(hydroxymethyl)aminomethane hydrochloride pH 7.5 (Tris/HCl, Sigma, cat. no. T5941).
Removal of unbound material was with 100 ml lysis buffer. Elution was with 50 ml of 50 mM Tris/HCl pH 7.5, 300 mM imidazol (Sigma, Germany, cat. no. I2399)/HCl pH 7.5). […] Aliquots were shock frozen in liquid nitrogen and stored at −80° C.
All assay components were diluted in reaction buffer, 50 mM MES/KOH (pH 6.1), 0.7 mM GSH (Sigma, G4251), 2 mM MgCl2 (Sigma, M2670), 0.05% Pluronic F127 (Sigma, P2443), and stored on ice prior to use. Compounds were diluted in 90% DMSO yielding final assay concentrations from the picomolar to three digit micromolar range.
Total fluorescent measurement was carried out with excitation and emission wavelength of 390 and 460 nm, respectively (BMG Fluostar Optima).

T1 sequence (O60760 whole entry): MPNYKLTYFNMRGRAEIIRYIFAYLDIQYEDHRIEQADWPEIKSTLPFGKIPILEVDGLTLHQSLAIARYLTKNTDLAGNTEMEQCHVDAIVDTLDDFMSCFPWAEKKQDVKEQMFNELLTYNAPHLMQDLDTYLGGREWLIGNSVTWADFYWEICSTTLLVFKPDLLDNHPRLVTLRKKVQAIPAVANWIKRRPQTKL

For `O=C(Nc1ccc(F)nc1)c1cccc(C(=O)N2CCN(C(=O)Nc3ccc(F)cc3)CC2)c1` [Compound XVIII, 4-[3-(6-Fluoro-pyridin-3-ylcarbamoyl)-benzoyl]-piperazine-1-carboxylic acid (4-fluoro-phenyl)-amide, reference compound], which IC50 is on record?
Its IC50 is 19500 nM.

How did the IC50 turn out when `O=C(Nc1ccc(F)cc1)N1CCN(C(=O)c2cccc(NS(=O)(=O)c3ccccc3)c2)CC1` [Compound XX, 4-(3-Benzenesulfonylamino-benzoyl)-piperazine-1-carboxylic acid (4-fluoro-phenyl)-amide, reference compound] was run?
Its IC50 is 19600 nM.

Same assay, conditions: given beside the compound name in Examples 1 to 167; read-out: Potency Range (GST2 IC50)

`Cc1cc(NC(=O)N2CCN(C(=O)c3cccc(F)c3)CC2)no1` [Compound 62, 4-(3-Fluoro-benzoyl)-piperazine-1-carboxylic acid (5-methyl-isoxazol-3-yl)-amide] was tested. Which IC50 did it give?
The IC50 was 101 to 1000 nM.

How did the IC50 turn out when `Cc1ccc(NC(=S)N2CCN(C(=O)c3ccc(F)cc3)CC2)cc1` [Compound 13, 4-(4-Fluoro-benzoyl)-piperazine-1-carbothioic acid p-tolylamide] was run?
The IC50 was 101 to 1000 nM.

How did the IC50 turn out when `O=C(Nc1ccc(Br)c(F)c1)N1CCN(C(=O)c2cccc(F)c2)CC1` [Compound 88, 4-(3-Fluoro-benzoyl)-piperazine-1-carboxylic acid (4-bromo-3-fluoro-phenyl)-amide] was run?
The IC50 was 11 to 100 nM.

With `O=C(Nc1ccc(N2CCN(C(=O)NC3CCCC3)CC2)c(F)c1)N1CCN(C(=O)c2cccc(F)c2)CC1` [Compound 54, N-{4-[4-(cyclopentylcarbamoyl)piperazin-1-yl]-3-fluorophenyl}-4-(3-fluorobenzoyl)piperazine-1-carboxamide] as the compound, how does the IC50 read?
Its IC50 is 11 to 100 nM.

How did the IC50 turn out when `CC(=O)Nc1ccc2nc(NC(=O)N3CCN(C(=O)c4cccc(F)c4)CC3)sc2c1` [Compound 84, 4-(3-Fluoro-benzoyl)-piperazine-1-carboxylic acid (6-acetylamino-benzothiazol-2-yl)-amide] was run?
Its IC50 is 11 to 100 nM.

How did the IC50 turn out when `Nc1ccc2nc(NC(=O)N3CCN(C(=O)c4cccc(F)c4)CC3)sc2c1` [Compound 136, 4-(3-Fluoro-benzoyl)-piperazine-1-carboxylic acid (6-amino-benzothiazol-2-yl)-amide] was run?
Its IC50 is 11 to 100 nM.

Which IC50 does the source give for `O=C(Nc1ccc(F)nc1)c1ccc(NC(=O)N2CCN(C(=O)c3cccc(F)c3)CC2)cc1F` [Compound 99, 4-(3-Fluoro-benzoyl)-piperazine-1-carboxylic acid [3-fluoro-4-(6-fluoro-pyridin-3-ylcarbamoyl)-phenyl]-amide] here?
The IC50 was 101 to 1000 nM.

For `NC(=O)c1cccc(NC(=O)N2CCN(C(=O)c3cccc(F)c3)CC2)c1` [Compound 158, 4-(3-Fluoro-benzoyl)-piperazine-1-carboxylic acid (3-carbamoyl-phenyl)-amide], which IC50 is on record?
Its IC50 is 101 to 1000 nM.

`O=C(Nc1ccc2sccc2c1)N1CCN(C(=O)c2cccc(F)c2)CC1` [Compound 27, 4-(3-Fluoro-benzoyl)-piperazine-1-carboxylic acid benzo[b]thiophen-5-ylamide] was tested. Which IC50 did it give?
Its IC50 is 11 to 100 nM.

With `O=C(Nc1ccc(NC(=O)N2CCN(C(=O)c3cccc(F)c3)CC2)cc1)c1cccnc1` [Compound 122, 4-(3-Fluoro-benzoyl)-piperazine-1-carboxylic acid {4-[(pyridine-3-carbonyl)-amino]-phenyl}-amide] as the compound, how does the IC50 read?
Its IC50 is 101 to 1000 nM.

`O=C(Nc1nc2ccccc2s1)N1CCN(C(=O)c2cccc(F)c2)CC1` [Compound 65, 4-(3-Fluoro-benzoyl)-piperazine-1-carboxylic acid benzothiazol-2-ylamide] was tested. Which IC50 did it give?
The IC50 was 11 to 100 nM.

`O=C(Nc1cccc(Oc2ccccc2)c1)N1CCN(C(=O)c2cccc(F)c2)CC1` [Compound 25, 4-(3-Fluoro-benzoyl)-piperazine-1-carboxylic acid (3-phenoxy-phenyl)-amide] was tested. Which IC50 did it give?
The IC50 was 11 to 100 nM.

Which IC50 does the source give for `CC(C)(C)C(=O)N1CCN(c2ccc(NC(=O)N3CCN(C(=O)c4cccc(F)c4)CC3)cc2F)CC1` [Compound 56, 4-(3-Fluoro-benzoyl)-piperazine-1-carboxylic acid {4-[4-(2,2-dimethyl-propionyl)-piperazin-1-yl]-3-fluoro-phenyl}-amide] here?
Its IC50 is 11 to 100 nM.

Which IC50 does the source give for `O=C(Nc1cccc(Nc2ccc(F)cc2)c1)N1CCN(C(=O)c2cccc(F)c2)CC1` [Compound 167, 4-(3-Fluoro-benzoyl)-piperazine-1-carboxylic acid [3-(4-fluoro-phenylamino)-phenyl]-amide] here?
The IC50 was 101 to 1000 nM.

For `O=C(Nc1ccc(F)c(-c2ncn[nH]2)c1)N1CCN(C(=O)c2cccc(F)c2)CC1` [Compound 161, 4-(3-Fluoro-benzoyl)-piperazine-1-carboxylic acid [4-fluoro-3-(2H-[1,2,4]triazol-3-yl)-phenyl]-amide], which IC50 is on record?
Its IC50 is 101 to 1000 nM.

With `CC(C)c1noc(-c2cccc(NC(=O)N3CCN(C(=O)c4cccc(F)c4)CC3)c2)n1` [Compound 162, 4-(3-Fluoro-benzoyl)-piperazine-1-carboxylic acid [3-(3-isopropyl-[1,2,4]oxadiazol-5-yl)-phenyl]-amide] as the compound, how does the IC50 read?
The IC50 was 11 to 100 nM.

With `O=C(c1cccc(F)n1)N1CCN(C(=S)Nc2ccc(C(F)(F)F)cc2)CC1` [Compound 20, 4-(6-Fluoro-pyridine-2-carbonyl)-piperazine-1-carbothioic acid (4-trifluoromethyl-phenyl)-amide] as the compound, how does the IC50 read?
The IC50 was 101 to 1000 nM.

For `O=C(Nc1ccc(N2CCOCC2)c(F)c1)N1CCN(C(=O)c2cc(F)ccc2F)CC1` [Compound 47, 4-(2,5-Difluoro-benzoyl)-piperazine-1-carboxylic acid (3-fluoro-4-morpholin-4-yl-phenyl)-amide], which IC50 is on record?
Its IC50 is 101 to 1000 nM.

How did the IC50 turn out when `O=C(Nc1cccc(NC(=O)N2CCN(C(=O)c3cccc(F)c3)CC2)c1)c1cc[n+]([O-])cc1` [Compound 110, 4-(3-Fluoro-benzoyl)-piperazine-1-carboxylic acid {3-[(1-oxy-pyridine-4-carbonyl)-amino]-phenyl}-amide] was run?
The IC50 was 101 to 1000 nM.

`O=C(c1cccc(F)c1)N1CCN(C(=S)Nc2ccc(C(F)(F)F)cc2)CC1` [Compound 23, 4-(3-Fluoro-benzoyl)-piperazine-1-carbothioic acid (4-trifluoromethyl-phenyl)-amide] was tested. Which IC50 did it give?
Its IC50 is 11 to 100 nM.

`CC(C)c1noc(-c2ccc(NC(=O)N3CCN(C(=O)c4cccc(F)c4)CC3)cc2)n1` [Compound 142, 4-(3-Fluoro-benzoyl)-piperazine-1-carboxylic acid [4-(3-isopropyl-[1,2,4]oxadiazol-5-yl)-phenyl]-amide] was tested. Which IC50 did it give?
The IC50 was 101 to 1000 nM.

How did the IC50 turn out when `O=C(Nc1nnc(-c2ccccc2)o1)N1CCN(C(=O)c2cccc(F)c2)CC1` [Compound 72, 4-(3-Fluoro-benzoyl)-piperazine-1-carboxylic acid (5-phenyl-[1,3,4]oxadiazol-2-yl)-amide] was run?
The IC50 was 11 to 100 nM.

For `CNC(=O)c1cccc(NC(=O)N2CCN(C(=O)c3cccc(F)c3)CC2)c1` [Compound 93, 4-(3-Fluoro-benzoyl)-piperazine-1-carboxylic acid (3-methylcarbamoyl-phenyl)-amide], which IC50 is on record?
The IC50 was 101 to 1000 nM.

For `O=C(Nc1ccc(NC(=O)N2CCN(C(=O)c3cc(F)ccc3F)CC2)cc1)c1ccc[n+]([O-])c1` [Compound 119, 4-(2,5-Difluoro-benzoyl)-piperazine-1-carboxylic acid {4-[(1-oxy-pyridine-3-carbonyl)-amino]-phenyl}-amide], which IC50 is on record?
Its IC50 is 11 to 100 nM.

With “4-(3-Fluoro-benzoyl)-piperazine-1-carboxylic acid [4-(2-methyl-thiazol-3-yl)-phenyl]-amide [Compound 29]” as the compound, how does the IC50 read?
Its IC50 is 11 to 100 nM.

Which IC50 does the source give for `O=C(Nc1ccc(-c2cccnc2)c(F)c1)N1CCN(C(=O)c2cccc(F)c2)CC1` [Compound 147, 4-(3-Fluoro-benzoyl)-piperazine-1-carboxylic acid (3-fluoro-4-pyridin-3-yl-phenyl)-amide] here?
Its IC50 is 11 to 100 nM.

With `O=C(Nc1cccc(NC(=O)N2CCN(C(=O)c3cccc(F)c3)CC2)c1)c1cccc[n+]1[O-]` [Compound 108, 4-(3-Fluoro-benzoyl)-piperazine-1-carboxylic acid {3-[(1-oxy-pyridine-2-carbonyl)-amino]-phenyl}-amide] as the compound, how does the IC50 read?
Its IC50 is 101 to 1000 nM.

For `O=C(Nc1nc2ccccc2[nH]1)N1CCN(C(=O)c2cccc(F)c2)CC1` [Compound 64, 4-(3-Fluoro-benzoyl)-piperazine-1-carboxylic acid (1H-benzoimidazol-2-yl)-amide], which IC50 is on record?
The IC50 was 101 to 1000 nM.

How did the IC50 turn out when `CCOC(=O)c1ccc2nc(NC(=O)N3CCN(C(=O)c4cccc(F)c4)CC3)sc2c1` [Compound 83, 2-{[4-(3-Fluoro-benzoyl)-piperazine-1-carbonyl]-amino}-benzothiazole-6-carboxylic acid ethyl ester] was run?
The IC50 was 11 to 100 nM.

For `O=C(c1cccc(F)n1)N1CCN(C(=S)Nc2ccc(N3CCOCC3)c(F)c2)CC1` [Compound 40, 4-(6-Fluoro-pyridine-2-carbonyl)-piperazine-1-carbothioic acid (3-fluoro-4-morpholin-4-yl-phenyl)-amide], which IC50 is on record?
Its IC50 is 101 to 1000 nM.
